Test results: patent US6900195B2, “Manzamines for treatment of drug resistant infection” (The University of Mississippi, priority 2000, dated 2005)
Converted amounts (≈) assume the structure as drawn. Read-outs that look alike come from different tables or passages of the source.

Experiments:
M. tuberculosis (H37Rv) = assay: microbe, parasite or virus in culture; assay type: cell-based, Mycobacterium tuberculosis
P. berghei N strain = assay: Oral antimalarial activity against P. berghei N strain; assay type: in vivo, Plasmodium berghei; conditions: orally in DMSO, preliminary results
[1] = Cytotoxicity of microbial metabolites versus parent compounds (cells not stated); assay type: cell-based
P. berghei [2] = assay: In vivo antimalarial activity in P. berghei-infected mice; design: species or system Plasmodium berghei; conditions: for reduction of parasitemia: single i.p. 100 μmoles/kg, comparison 2 days after treatment
Experimental: In Vivo Evaluation of Antimalarial Activity. (National University of Singapore by Dr. Kenny Ang, confirmation of activity at the WHO). Four-week-old, male Swiss albino mice are injected intraperitoneally with 10^7 P. berghei-infected mouse erythrocytes. On day 2 after infection, mice are treated with a single intraperitoneal injection of either the test compound or a reference drug (chloroquine or artemisinin) within a concentration range of 50 to 1,000 μmol/kg of body weight. All test compounds and reference drugs were injected as a suspension in 5% Tween 60 saline. For oral administration, the test compounds are given as a suspension in corn oil, and mice are given two consecutive doses of test compound at 100 μmol/kg on days 2 and 3 after infection. […] Control mice receive only 5% Tween 60 saline or corn oil. Survival of mice was recorded daily. Percent parasitemia is determined microscopically (magnification, ×1,000) from mouse-tail blood smears that were fixed with methanol and stained with Giemsa stain. Blood samples from individual P. berghei-infected mice were collected at various times after a single intraperitoneal treatment of 100 μmol/kg of manzamine A per kg on day 3 after infection. For transmission electron microscopy, approximately 0.5-ml blood samples are fixed with 3% glutaraldehyde in 0.1 M cacodylate buffer (pH 7.4), postfixed with 1% osmium tetroxide and 1% uranyl acetate, dehydrated in a graded ethanol series, and embedded in Spurr's resin. The resulting blocks are cut by using a Reichert-Jung Ultracut with a glass knife. Ultra thin sections were mounted on 150-mesh copper grids, stained with 1% uranyl acetate and 1% lead citrate, and examined with a JEM-100CX electron microscope. Manzamine in plasma was detected by liquid chromatography=selected reaction monitoring-mass spectrometry (LC-SRM-MS). P. berghei-infected mice will be treated with the alkaloid (100 μmol/kg intraperitoneally) on day 3 post infection. Blood samples are collected from individual mice at specific times up to 48 h posttreatment. Plasma was isolated by centrifugation and extracted with 95% acetonitrile containing 5 mM ammonium acetate. The plasma extract was filtered, and 5 μl samples are injected into a Shimadzu LC-10 AD microbore high-pressure liquid chromatograph interfaced with a Perkin-Elmer API 300 turbo-ion-spray tandem mass spectrometer. Samples are separated on a Prodigy C-18 column (30 by 1 mm, 5-μm inner diameter) by elution at 50 μl/min with 86% acetonitrile containing 5 mM ammonium acetate. Manzamine can be detected by monitoring the transition of the protonated manzamine precursor ion from the (M+H)^+ to the (M+H —H2O)^+. Peak areas for the product ion chromatograms are integrated, and concentrations are determined from a linear calibration curve for manzamine in spiked plasma. The limit of detection for the manzamines in plasma by LC-SRM-MS is 2.5 pg. Results are subjected to a nonparametric statistical assessment with a confidence interval of 99% (p<0.01) by using Analyse-it software linked to Microsoft Excel. The program uses the Mann-Whitney U test to determine significant differences between two groups of data.

[3] = test system: P. falciparum W2 clone (Indochina, chloroquine-resistant); assay: In vitro antimalarial activity, parasite LDH assay, W2 clone; assay type: cell-based, Plasmodium falciparum; conditions: for IC50: Plasmodium falciparum
Vero cells [4] = conditions: African green monkey, 48 h
[5] = test system: P. falciparum D6 clone (Sierra Leone, chloroquine-sensitive); assay: In vitro antimalarial activity, parasite LDH assay, D6 clone; assay type: cell-based, Plasmodium falciparum; conditions: for IC50: Plasmodium falciparum
Vero cells [6] = assay: In vitro cytotoxicity to mammalian cells (neutral red)
human PBM cells = assay: Cytotoxicity in human PBM cells; conditions: read-out: Cytotoxicity in human PBM cells IC50
HIV-1 in human PBM cells = assay: Anti-HIV activity in human PBM cells; assay type: cell-based
[7] = test system: Plasmodium yoelii NS malaria strain; assay: WHO Peters 4-day assay, Plasmodium yoelii NS in mice; assay type: in vivo
Text: To confirm the activity of the manzamines against malaria the World Health Organization examined manzamine A against the Plasmodium yoelii NS malaria strain in mice (Peters 4-day assay-Handbook of Animal Models of Infection Chapter 92, Academic Press 1999).

[8] = Cytotoxicity in human PBM cells; conditions: human
P. berghei [9] = assay: In vivo antimalarial activity in P. berghei-infected mice; design: species or system Plasmodium berghei; conditions: three 50 μmoles/kg i.p. doses
T. gondii (C56 strain) = assay: Survival of mice infected orally with T. gondii cysts; assay type: in vivo, Toxoplasma gondii
Text: Toxoplasma gondii. […] Untreated infected mice in the control group started dying 10 days post infection. Mice treated with manzamine A died nine days after treatment stopped. […] FIGS. 1 and 2 provide the graphic results of this experiment. […] Treatment was begun on Day 1 following in infection and continued for 8 days.

[10] = Cytotoxicity against human lung and colon carcinoma cells; assay type: cell-based
[11] = test system: P-388 mouse lymphoma cells; conditions: cited from earlier work
[12] = test system: P-388 mouse lymphoma cells; assay: Cytotoxicity against P-388 mouse lymphoma cells; assay type: cell-based
[13] = test system: human lung and colon carcinoma cells; conditions: cited from earlier work
[14] = M. tuberculosis H37Rv, test concentration not given
[15] = Mycobacterium tuberculosis, M. tuberculosis H37Rv, read-out: MIC
[16] = P. berghei-infected mice, single i.p. dose 100 μmoles/kg
[17] = P. falciparum W2 clone, read-out: W2 Clone IC50

8,12-di-O-acetyl ent-8-hydroxymanzamine A [ent-8-Hydroxymanzamine A diAc]
MIC (M. tuberculosis (H37Rv); M. tuberculosis H37Rv): <6.25 µg/mL | % Inhibition (M. tuberculosis (H37Rv); [14]): 95%

8-hydroxymanzamine
ED50 (P. berghei N strain): < 10 mg/kg

15,16,32,33-tetrahydro-ent-8-hydroxymanzamine A
MIC (M. tuberculosis (H37Rv); M. tuberculosis H37Rv): <6.25 µg/mL | % Inhibition (M. tuberculosis (H37Rv); [14]): 100%

O[C@]12C=C(c3nccc4c3[nH]c3ccccc34)C3CCN(CCCC/C=C\CC1)C[C@@]31C[C@]34CC[C@H](CCCN3[C@H]12)O4 (some centres unmarked) [6-Deoxymanzamine X, 6-deoxymanzamine X]
MIC (M. tuberculosis (H37Rv); M. tuberculosis H37Rv): <12.5 µg/mL | % Inhibition (M. tuberculosis (H37Rv); [14]): 98%

O=C1CCCN2[C@H]3[C@]45CN6CCCC/C=C\CC[C@]3(C=C(c3nccc7c3[nH]c3c(O)cccc37)[C@H]4CC6)O[C@@]2(CC1)C5 [8-HOMA Metabolite 1]
cytotoxicity relative to the parent compounds [1]: less cytotoxic than the parent compounds | % Inhibition (M. tuberculosis (H37Rv); [14]): 98% | MIC (M. tuberculosis (H37Rv); [15]): < 12.5 µg/mL

C[C@@H]1CC[C@H]2[C@@H](C)C(=O)O[C@@H]3O[C@@]4(C)CC[C@@H]1[C@]32OO4 [Artemisinin, artemisinin, reference compound]
average survival days (P. berghei [2]; [16]): 2 to 3 days | IC50 [3, 17]: 0.0063 µg/mL (≈ 0.0223 µM) | Cytotoxicity TC50 (Vero cells [4]): >5,000 ng/mL | IC50 ([5]; P. falciparum D6 clone, read-out: D6 Clone IC50): 0.01 µg/mL (≈ 0.0354 µM)

CCN(CC)CCCC(C)Nc1ccnc2cc(Cl)ccc12 (centres unmarked) [Chloroquine, chloroquine, reference compound]
reduction of parasitemia (P. berghei [2]; P. berghei-infected mice): comparable reduction of parasitemia | average survival days (P. berghei [2]; in vivo, ip): 6 days | IC50 [3, 17]: 0.17 µg/mL (≈ 0.531 µM) | IC50 ([5]; D6, read-out: D6 Clone IC50): 0.0155 µg/mL (≈ 0.0485 µM) | Cytotoxicity TC50 (Vero cells [6]): >5,000 ng/mL

O=CC1=C[C@@]2(O)CC/C=C\CCCCN3CC[C@@H]1[C@]1(CC4/C=C\CCCCN4[C@H]12)C3 (some centres unmarked) [Ircinal A]
cytotoxicity relative to the parent compounds [1]: less cytotoxic than the parent compounds | activity in vivo against malaria (P. berghei [2]; mice): failed to show any activity in vivo against malaria | IC50 (human PBM cells): 34.2 µM | MIC (M. tuberculosis (H37Rv); M. tuberculosis H37Rv): <12.5 µg/mL | % Inhibition (M. tuberculosis (H37Rv); [14]): 98% | EC50 (HIV-1 in human PBM cells; human PBM cells): 45.2 µM

O[C@]12C=C(c3nccc4c3[nH]c3ccccc34)[C@@H]3CCN(CCCC/C=C\CC1)C[C@@]31C[C@@H]3/C=C\CCCCN3[C@@H]12 [Manzamine A]
reduction of parasitemia (P. berghei [2]; P. berghei-infected mice): comparable reduction of parasitemia | reduction of parasitemia compared with control mice (P. berghei [2]; P. berghei-infected mice, two oral doses 100 μmoles/kg): 90% | in vivo activity against P. berghei relative to chloroquine or artemisinin (P. berghei [2]; mice): in vivo activity against P. berghei greater than chloroquine or artemisinin | ED50 ([7]; Plasmodium yoelii, 96 h): < 5 mg/kg | activity relative to Na artesunate ([7]; given orally in DMSO or carboxy-methylcellulose-based formulation): more active than Na artesunate | IC50 ([3]; W2, read-out: W2 Clone IC50): 0.008 µg/mL (≈ 0.0146 µM) | Selectivity index (SI), W2 clone ([3]; Vero TC50 relative to W2 IC50): SI = 36 | IC50 [8]: 5.1 µM | outcome after three doses (P. berghei [9]): curative and totally clears the parasite | % Inhibition (M. tuberculosis (H37Rv); [14]): 99% | MIC (M. tuberculosis (H37Rv); [15]): 1.56 µg/mL (≈ 2.84 µM) | time of death after treatment stopped (T. gondii (C56 strain); 8 mg/kg i.p. once a day for 8 days): nine | signs or behavior during treatment (T. gondii (C56 strain); 8 mg/kg i.p. once a day for 8 days (paralysis, blindness, twirling)): no uncommon signs or behavior | survival at day 16 of infection (T. gondii (C56 strain); 8 mg/kg i.p. once a day for 8 days, all control mice had died by day 16): all the manzamine A treated mice were alive | time to death (T. gondii (C56 strain); SW mice, 10 cysts C56 orally, 8 mg/kg i.p. once a day for 8 days from day 1): significant prolongation of time to death | IC50 ([5]; D6, read-out: D6 Clone IC50): 0.0045 µg/mL (≈ 0.0082 µM) | Selectivity index (SI), D6 clone ([5]; Vero TC50 relative to D6 IC50): SI = 64 | Cytotoxicity TC50 (Vero cells [6]): 290 ng/mL | EC50 (HIV-1 in human PBM cells; Human immunodeficiency virus 1, PBMC): 12.9 µM

O=C1CCCN2[C@@H](CC1)C[C@]13CN4CCCC/C=C\CC[C@](O)(C=C(c5nccc6c5[nH]c5ccccc56)[C@@H]1CC4)[C@H]23 [Manzamine E]
IC50 (human PBM cells): 35.5 µM | MIC (M. tuberculosis (H37Rv); M. tuberculosis H37Rv): 3.13 µg/mL (≈ 5.54 µM) | % Inhibition (M. tuberculosis (H37Rv); [14]): 99% | EC50 (HIV-1 in human PBM cells; human PBM cells): 18.7 µM

O[C@]12C=C(c3nccc4c3[nH]c3ccccc34)[C@@H]3CCN(CCCC/C=C\CC1)C[C@@]31CC/C=C\CCCCN[C@@H]12 [Manzamine J]
% Inhibition (M. tuberculosis (H37Rv); [14]): 99% | MIC (M. tuberculosis (H37Rv); [15]): < 12.5 µg/mL

CO[C@H]1/C=C/O[C@@]2(C)Oc3c(C)c(O)c4c(O)c(c(/C=N/N5CCN(C)CC5)c(O)c4c3C2=O)NC(=O)/C(C)=C\C=C\[C@H](C)[C@H](O)[C@@H](C)[C@@H](O)[C@@H](C)[C@H](OC(C)=O)[C@@H]1C [Rifampin, reference compound]
% Inhibition (M. tuberculosis (H37Rv)): 100% | MIC (M. tuberculosis (H37Rv); Mycobacterium tuberculosis, H37RV): 0.25 µg/mL (≈ 0.304 µM)

O=C1CCCN2[C@@H](CC1)C[C@]13CN4CCCC/C=C\CC[C@](O)(C=C(c5nccc6c5[nH]c5c(O)cccc56)C1CC4)[C@H]23 (stereo partly drawn) [ent-Manzamine F, ent-manzamine F]
IC50 (human PBM cells): 40.8 µM | MIC (M. tuberculosis (H37Rv); M. tuberculosis H37Rv): >12.5 µg/mL | EC50 (HIV-1 in human PBM cells; human PBM cells): 94.8 µM

O[C@@H]1CCCN2CC[C@@H]1O[C@@]13CC[C@@H](OC[C@]45CN6CCCC/C=C\CC[C@](O)(C=C(c7nccc8c7[nH]c7ccccc78)[C@@H]4CC6)[C@H]25)[C@@H](O)CCN1[C@@H]1[C@]2(CN4CCCC/C=C\CC[C@]1(O)C=C(c1nccc5c1[nH]c1ccccc15)[C@@H]2CC4)C3 [neo-Kauluamine, neo-kauluamine]
IC50 [10]: 1 µg/mL (≈ 0.859 µM) | % Inhibition (M. tuberculosis (H37Rv); [14]): 44% | MIC (M. tuberculosis (H37Rv); [15]): > 12.5 µg/mL

(+)-8-Hydroxymanzamine A
W2 Clone IC50 ([3]; P. falciparum W2 clone): 0.008 µg/mL | MIC (M. tuberculosis (H37Rv); M. tuberculosis H37Rv): <6.25 µg/mL | % Inhibition (M. tuberculosis (H37Rv); [14]): 100% | cytotoxicity, reported [11]: inactive | D6 Clone IC50 ([5]; P. falciparum D6 clone): 0.006 µg/mL | Cytotoxicity TC50 (Vero cells [6]): 320 ng/mL

(−)-12, 34-Oxamanzamine F
IC50 (human PBM cells): 75.2 µM | EC50 (HIV-1 in human PBM cells; human PBM cells): 20.4 µM

Manzamine L
MIC (M. tuberculosis (H37Rv); M. tuberculosis H37Rv): <12.5 µg/mL | % Inhibition (M. tuberculosis (H37Rv); [14]): 99%

ent-8-hydroxy-manzamine A [ent-8-Hydroxymanzamine A]
cytotoxicity IC50 [12]: 0.25 µg/mL | reduction of parasitemia (P. berghei [2]; P. berghei-infected mice): efficiently reduced parasitemia | average survival days (P. berghei [2]; [16]): 9 to 11 days | in vivo activity against P. berghei relative to chloroquine or artemisinin (P. berghei [2]; mice): in vivo activity against P. berghei greater than chloroquine or artemisinin | IC50 (human PBM cells): 4.9 µM | MIC (M. tuberculosis (H37Rv); M. tuberculosis H37Rv): 3.13 µg/mL | % Inhibition (M. tuberculosis (H37Rv); [14]): 99% | EC50 (HIV-1 in human PBM cells; human PBM cells): 44.2 µM

kauluamine
cytotoxicity [13]: inactive
